Data from US7541457B2, “Amphiphilic trisulfonated porphyrazines for photodynamic applications in medicine” (Universite de Sherbrooke, priority 2003, dated 2009).

Key:
EMT-6 mammary tumours [1] = assay: PDT of EMT-6 mammary tumors in BALB/c mice; format: in vivo
Description: All experiments were performed on male BALB/c mice (18-22g) (Charles River Breeding Laboratories, Montreal, Quebec, Canada) bearing two EMT-6 mammary tumours. The experiments were conducted following a protocol approved by the Canadian Council on Animal Care and the in-house ethics committee. Animals were allowed free access to water and food throughout the experiments. Before tumour implantation, hair on the hind legs and the backs of the mice was removed by shaving and chemical depilating (Nair, Whitehall, Mississauga, Canada). The two tumors were implanted on the backs of the animals by intradermal injection of 2-3×10^5 EMT-6 cells suspended in 0.05 ml Waymouth's growth medium.
For PDT tumor response studies, mice were used 7-10 d after tumor cell inoculation (mean external tumor size 4.5-6.0 mm diameter and approximately 2.5 mm thickness). The mice were given an intravenous administration of […] of porphyrazine dye in PBS (0.2 mL/20 g) through the tail vein. […] Mice were examined daily for 20 days following PDT in order to assess tumor response (necrosis) and recurrence.
At the highest dye dose over 50% of the animals responded with complete tumor regression as observed 3 weeks after treatment.

EMT-6 mammary tumours [2] = assay: PDT of EMT-6 mammary tumors in BALB/c mice; format: in vivo; conditions: for Necrosis (flat and necrotic tissue within 2 days post-PDT): light 24 h later, 670 nm, 400 J/cm^2
[3] = system: Vascular Endothelial Growth Factor evoked plasma extravasation; assay: PDT of VEGF-165 evoked plasma extravasation (Evans Blue) in rat retina; format: in vivo, Wistar rats
Description: (§1) The long established Evans Blue technique was used to measure plasma extravasation. Under anesthesia with a 10 mg/kg mixture of Ketamine and Xylazine, 250 g male wistar rats were injected with 45 mg/kg Evans Blue through a canula placed in the jugular vein. Ten minutes later, the experimental procedure was started. At the end of experiments, the animals were sacrificed and their eyes were enucleated. Both eyes combined were placed into 300 μl of formamide and incubated at 70° C. for 18 hours. Following incubation the supernatant absorbance at 620 nm was read with a spectrophotometer. A standard curve was used to determine the concentration of Evans Blue, which was expressed in μg/ml.
Rats anesthetized with a mixture of Ketamine and Zylazine (10 mg/kg) were injected with 2 μl of VEGF-165 prepared in saline, directly into the vitreous, using a Hamilton micro syringe. A period of 10 min was allotted for the plasma extravasation response to occur. After the response to VEGF-165 developed, the eyes were enucleated and subjected to spectrophotometric analysis for Evan's Blue.
[…] […] Subsequently the eyes were enucleated and tested for Evan's Blue levels.

[4] = system: EMT-6 murine mammary tumor cells; assay: Phototoxicity (cellular photoinactivation, MTT) against EMT-6 tumor cells in vitro; format: cell-based; conditions: for LD90 (light dose for 90% cell kill): dye 1 μM, red light 660-700 nm
[5] = system: plasma extravasation in STZ-diabetic rat retinal vessels; assay: PDT of plasma extravasation (Evans Blue) in STZ-diabetic rat retina; format: in vivo, Wistar rats; conditions: for Inhibition of plasma extravasation: 0.5 μmole/kg
Description: as §1
After an overnight fast, diabetes was induced with a single 65 mg/kg intraperitoneal injection of streptozotocin (STZ) in 10 mM citrate buffer, pH 4.5. Animals that served as non diabetic controls received an equivalent amount of citrate buffer alone. One week later, just prior to experimentation, blood glucose levels were measured to determine diabetic status. Only rats with blood glucose higher than 20 mM were deemed STZ-diabetic.
Conscious rats were injected with the photosensitizing drug through the tail vein six hours prior to irradiation with red light onto the retina. […] Subsequently the eyes were enucleated and tested for Evan's Blue levels.

| Substance | Tumor response (flattening and necrosis) within 48 h after PDT (EMT-6 mammary tumours [1]; all dye doses used, 0.5-1 μmole/kg) | Mortality (EMT-6 mammary tumours [1]; any of the dye and light doses used) | Mortality (EMT-6 mammary tumours [1]; dye dose 1 μmole/kg) [%] | Necrosis (flat and necrotic tissue within 2 days post-PDT) (EMT-6 mammary tumours [1]; dye dose 1 μmole/kg i.v., light 24 h later, 670 nm, 400 J/cm^2) [%] | Cure (absence of a palpable tumor 3 weeks post-PDT) (EMT-6 mammary tumours [2]; dye dose 0.5 μmole/kg) [%] | Mortality (EMT-6 mammary tumours [2]; dye dose 0.5 μmole/kg) [%] | Necrosis (flat and necrotic tissue within 2 days post-PDT) (EMT-6 mammary tumours [2]; dye dose 0.5 μmole/kg i.v.) [%] | Cure (absence of a palpable tumor 3 weeks post-PDT) (EMT-6 mammary tumours [2]; dye dose 0.75 μmole/kg) [%] | Mortality (EMT-6 mammary tumours [2]; dye dose 0.75 μmole/kg) [%] | Necrosis (flat and necrotic tissue within 2 days post-PDT) (EMT-6 mammary tumours [2]; dye dose 0.75 μmole/kg i.v.) [%] | Inhibition of plasma extravasation ([3]; VEGF-165 injected rats, 0.5 μmole/kg, red light 680 nm, 25 mW/cm^2, 20 J/cm^2) | Plasma extravasation after PDT ([3]; VEGF-165 treated STZ-diabetic rats, 5 hour interval between photosensitizer administration and light) | LD90 (light dose for 90% cell kill) ([4]; 6 h incubation) [J · cm^−2] | LD90 (light dose for 90% cell kill) ([4]; 24 h incubation) [J · cm^−2] | Relative phototoxicity within the alkylyl series ([4]; compounds 45-49, 6 h and 24 h incubation) | Inhibition of plasma extravasation ([5]; light 6 h after drug, 45 J/cm2, total fluence 3 J) | Plasma extravasation after PDT ([5]; STZ-diabetic rats, interval drug to light extended from 1 hour up to 6 hours) | Relative potency as inhibitor of plasma extravasation ([5]; among the five molecules tested, light 6 h after drug) | Inhibition of plasma extravasation ([5]; diabetic rats, red light 680 nm, 25 mW/cm^2, 20 J/cm^2) |
| --- | --- | --- | --- | --- | --- | --- | --- | --- | --- | --- | --- | --- | --- | --- | --- | --- | --- | --- | --- |
| Zinc tri-(4-sulfobenzo)-5-mono-[(1-hexynyl)naphtho]-porphyrazine [Compound 46] | All treated tumors responded | No mortality occurred | 0 | 100 | 0 | 0 | 100 | 20 | 0 | 100 | completely inhibited plasma extravasation to control levels | reach control levels | 4.1 | 1.2 | highest phototoxicity | completely inhibited plasma extravasation | reduced plasma extravasation to the level of control non-diabetic rats | most potent inhibitor of plasma extravasation | completely inhibited plasma extravasation to control levels |
| zinc trisulfophthalocyanine [ZnPcS3, reference compound] | – | – | – | – | – | – | – | – | – | – | – | – | 5.9 | 2.2 | – | – | – | – | – |
